Patent publication US8980276B2, “Conjugates for the prevention or treatment of nicotine addiction” (Pfizer Inc, priority 2010, dated 2015)

What was measured:
[1] = Dissolution of hapten-spacer conjugate for coupling; assay type: physicochemical; conditions: at 50 mg per ml
Method: a) The hapten-spacer conjugates were obtained as a yellow oil and stored at 2 to 8° C. until the day of use (for up to one week, longer storage was at −20° C.). […] The result was a yellow-brown suspension or solution.

[2] = test system: anti-nicotine antibodies; assay: Competition ELISA to determine specificity of antibodies induced by anti-nicotine vaccines; assay type: binding, mouse; conditions: plasma of mice immunized with conjugates of examples 1 and 2; inhibitors diluted serially from 20,000 μM

## CN1CCC[C@H]1c1cncc(CCCNC(=O)CCCCCCN)c1 [Preparation 33, 7-amino-N-(3-{5-[(2S)-1-methylpyrrolidin-2-yl]pyridin-3-yl}propyl) heptanamide]
[1]
  solubility in deionised water: did not dissolve fully in deionised water

## CN1C(=O)CC[C@H]1c1cccnc1 [cotinine]
[2]
  inhibition of binding of anti-nicotine antibodies to nicotine-coated ELISA plates by added inhibitor: no such effect is observed

## CN1CCCC1c1cccnc1 (stereo not shown) [nicotine]
[2]
  inhibition of binding of anti-nicotine antibodies to nicotine-coated ELISA plates by added inhibitor: dose-dependent inhibition of binding

## c1cnc2cc3c(cc2n1)[C@@H]1CNC[C@H]3C1 [varenicline]
[2]
  inhibition of binding of anti-nicotine antibodies to nicotine-coated ELISA plates by added inhibitor: no such effect is observed
